A word on the Ki: it is a measure of affinity in units of concentration, obtained from inhibition or displacement.

Some targets named below: Mu-type opioid receptor (Rattus norvegicus, UniProt P33535); D(2) dopamine receptor (Homo sapiens, UniProt P14416); D(1A) dopamine receptor (Homo sapiens, UniProt P21728).
For test [1], the target named is T1, Muscarinic acetylcholine receptor M2 (Homo sapiens, UniProt P08172).
T1 sequence (P08172 whole entry): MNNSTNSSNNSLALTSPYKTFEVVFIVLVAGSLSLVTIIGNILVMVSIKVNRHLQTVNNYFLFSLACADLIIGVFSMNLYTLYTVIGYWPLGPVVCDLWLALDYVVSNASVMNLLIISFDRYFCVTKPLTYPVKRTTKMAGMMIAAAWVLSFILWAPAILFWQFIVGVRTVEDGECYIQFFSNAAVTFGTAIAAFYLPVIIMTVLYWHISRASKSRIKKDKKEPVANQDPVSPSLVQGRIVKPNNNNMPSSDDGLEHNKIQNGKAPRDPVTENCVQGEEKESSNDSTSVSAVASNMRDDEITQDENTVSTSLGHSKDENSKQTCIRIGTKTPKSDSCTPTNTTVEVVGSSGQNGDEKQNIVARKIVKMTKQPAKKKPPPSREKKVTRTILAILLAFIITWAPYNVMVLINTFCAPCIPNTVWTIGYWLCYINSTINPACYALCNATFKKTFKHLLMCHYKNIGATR

Test [2] concerns the target Glutamate receptor ionotropic, NMDA 1 (Rattus norvegicus, UniProt P35439).
Test [3] concerns the target T2, 5-hydroxytryptamine receptor 2C (Homo sapiens, UniProt P28335).
T2 sequence (P28335 whole entry): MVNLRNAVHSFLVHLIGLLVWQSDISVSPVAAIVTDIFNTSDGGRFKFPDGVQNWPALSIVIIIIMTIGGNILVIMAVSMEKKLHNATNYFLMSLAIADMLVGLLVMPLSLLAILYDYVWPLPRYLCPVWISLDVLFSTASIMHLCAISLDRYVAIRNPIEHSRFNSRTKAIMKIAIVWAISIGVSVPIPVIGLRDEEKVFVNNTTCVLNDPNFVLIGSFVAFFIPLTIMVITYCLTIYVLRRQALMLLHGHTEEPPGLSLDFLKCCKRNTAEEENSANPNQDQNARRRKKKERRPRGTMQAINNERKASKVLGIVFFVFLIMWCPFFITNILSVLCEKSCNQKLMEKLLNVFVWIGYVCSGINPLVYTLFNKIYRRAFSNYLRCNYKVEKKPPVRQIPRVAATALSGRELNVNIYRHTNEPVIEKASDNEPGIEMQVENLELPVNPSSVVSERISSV

The target of test [4] is T3, Muscarinic acetylcholine receptor M1 (Homo sapiens, UniProt P11229).
T3 sequence (P11229 whole entry): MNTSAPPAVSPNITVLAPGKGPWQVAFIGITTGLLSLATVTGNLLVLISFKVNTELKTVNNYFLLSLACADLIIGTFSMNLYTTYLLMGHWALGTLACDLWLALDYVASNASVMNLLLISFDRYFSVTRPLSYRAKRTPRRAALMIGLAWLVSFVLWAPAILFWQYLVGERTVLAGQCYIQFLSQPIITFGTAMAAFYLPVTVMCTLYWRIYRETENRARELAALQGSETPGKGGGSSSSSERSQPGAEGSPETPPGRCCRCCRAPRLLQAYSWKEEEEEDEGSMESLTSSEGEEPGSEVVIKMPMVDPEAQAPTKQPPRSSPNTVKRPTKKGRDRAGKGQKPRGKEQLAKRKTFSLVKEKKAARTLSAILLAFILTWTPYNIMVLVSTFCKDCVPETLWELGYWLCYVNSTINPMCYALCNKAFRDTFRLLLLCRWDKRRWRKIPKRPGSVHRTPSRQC

In a further test the target is T4, B1 bradykinin receptor (Homo sapiens, UniProt P46663).
T4 sequence (P46663 whole entry): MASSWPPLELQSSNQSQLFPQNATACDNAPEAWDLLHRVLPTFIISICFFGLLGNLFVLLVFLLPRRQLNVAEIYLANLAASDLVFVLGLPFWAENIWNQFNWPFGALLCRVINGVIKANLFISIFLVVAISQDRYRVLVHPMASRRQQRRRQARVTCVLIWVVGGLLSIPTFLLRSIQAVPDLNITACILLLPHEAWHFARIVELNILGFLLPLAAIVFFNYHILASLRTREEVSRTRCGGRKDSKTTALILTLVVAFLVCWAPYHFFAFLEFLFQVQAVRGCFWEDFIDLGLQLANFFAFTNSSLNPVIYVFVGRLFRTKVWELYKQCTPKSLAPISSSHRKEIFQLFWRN

Test [5] addresses 5-hydroxytryptamine receptor 4 (Cavia porcellus, UniProt O70528).
For test [6], the target named is T5, Type-1 angiotensin II receptor (Xenopus tropicalis, UniProt B3DLC0).
T5 sequence (B3DLC0 whole entry): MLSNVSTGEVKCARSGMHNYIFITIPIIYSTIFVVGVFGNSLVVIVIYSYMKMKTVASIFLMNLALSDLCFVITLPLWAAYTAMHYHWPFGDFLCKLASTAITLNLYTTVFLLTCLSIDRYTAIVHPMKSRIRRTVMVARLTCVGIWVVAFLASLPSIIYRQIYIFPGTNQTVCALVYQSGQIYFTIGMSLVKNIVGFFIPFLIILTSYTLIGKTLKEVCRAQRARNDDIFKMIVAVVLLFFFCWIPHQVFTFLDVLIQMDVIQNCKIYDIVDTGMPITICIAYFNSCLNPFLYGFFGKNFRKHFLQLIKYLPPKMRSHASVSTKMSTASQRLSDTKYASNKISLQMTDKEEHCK

Test [7] has as its target T6, Alpha-1A adrenergic receptor (Homo sapiens, UniProt P35348).
T6 sequence (P35348 whole entry): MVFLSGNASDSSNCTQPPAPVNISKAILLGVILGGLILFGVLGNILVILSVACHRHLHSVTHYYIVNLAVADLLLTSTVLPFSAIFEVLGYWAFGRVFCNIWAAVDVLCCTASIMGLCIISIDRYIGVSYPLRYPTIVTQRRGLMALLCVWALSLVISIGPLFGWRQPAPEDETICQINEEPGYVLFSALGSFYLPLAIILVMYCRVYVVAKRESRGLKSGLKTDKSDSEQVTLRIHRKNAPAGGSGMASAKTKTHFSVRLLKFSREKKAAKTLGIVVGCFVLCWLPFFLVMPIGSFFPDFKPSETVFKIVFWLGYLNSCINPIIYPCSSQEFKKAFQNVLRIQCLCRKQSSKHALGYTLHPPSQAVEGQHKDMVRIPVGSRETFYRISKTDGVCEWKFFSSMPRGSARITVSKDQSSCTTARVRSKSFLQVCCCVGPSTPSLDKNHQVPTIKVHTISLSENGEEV

The target in test [8] is T7, 5-hydroxytryptamine receptor 3A (Homo sapiens, UniProt P46098).
T7 sequence (P46098 whole entry): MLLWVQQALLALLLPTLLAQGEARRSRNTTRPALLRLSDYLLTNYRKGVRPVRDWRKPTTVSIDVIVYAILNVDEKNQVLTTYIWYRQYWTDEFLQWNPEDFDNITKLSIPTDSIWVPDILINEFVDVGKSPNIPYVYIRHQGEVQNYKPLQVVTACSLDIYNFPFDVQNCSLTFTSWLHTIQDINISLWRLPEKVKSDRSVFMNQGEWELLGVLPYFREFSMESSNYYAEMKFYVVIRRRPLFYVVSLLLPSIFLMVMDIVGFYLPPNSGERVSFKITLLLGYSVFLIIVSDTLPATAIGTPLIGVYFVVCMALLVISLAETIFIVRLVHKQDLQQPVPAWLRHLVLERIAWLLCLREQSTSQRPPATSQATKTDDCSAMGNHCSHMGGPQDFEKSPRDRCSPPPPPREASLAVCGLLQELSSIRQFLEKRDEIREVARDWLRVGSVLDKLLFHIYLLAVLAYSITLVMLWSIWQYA

Sequence of 5-hydroxytryptamine receptor 4 (O70528 whole entry): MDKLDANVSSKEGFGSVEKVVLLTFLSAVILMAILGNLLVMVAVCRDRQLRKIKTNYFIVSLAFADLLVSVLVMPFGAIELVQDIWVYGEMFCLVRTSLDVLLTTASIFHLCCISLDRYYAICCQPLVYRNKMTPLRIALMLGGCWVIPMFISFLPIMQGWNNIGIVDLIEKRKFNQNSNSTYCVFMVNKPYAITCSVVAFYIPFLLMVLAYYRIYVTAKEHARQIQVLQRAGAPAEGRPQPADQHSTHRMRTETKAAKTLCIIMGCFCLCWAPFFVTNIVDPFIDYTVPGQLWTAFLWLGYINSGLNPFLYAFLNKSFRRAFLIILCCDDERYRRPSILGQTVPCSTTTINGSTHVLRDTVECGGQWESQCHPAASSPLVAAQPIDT
Sequence of D(1A) dopamine receptor (P21728 whole entry): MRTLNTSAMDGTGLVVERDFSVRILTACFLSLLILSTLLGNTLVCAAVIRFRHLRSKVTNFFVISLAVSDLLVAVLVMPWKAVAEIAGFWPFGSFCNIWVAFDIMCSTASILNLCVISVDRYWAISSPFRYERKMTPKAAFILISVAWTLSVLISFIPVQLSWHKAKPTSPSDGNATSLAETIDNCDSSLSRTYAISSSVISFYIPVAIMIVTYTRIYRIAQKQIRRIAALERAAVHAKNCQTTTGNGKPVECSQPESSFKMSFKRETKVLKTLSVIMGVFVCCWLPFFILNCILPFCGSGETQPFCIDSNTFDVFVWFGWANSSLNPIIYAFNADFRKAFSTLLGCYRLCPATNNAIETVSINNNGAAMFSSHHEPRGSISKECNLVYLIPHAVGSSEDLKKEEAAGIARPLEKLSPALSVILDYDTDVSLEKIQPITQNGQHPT
Sequence of Mu-type opioid receptor (P33535 whole entry): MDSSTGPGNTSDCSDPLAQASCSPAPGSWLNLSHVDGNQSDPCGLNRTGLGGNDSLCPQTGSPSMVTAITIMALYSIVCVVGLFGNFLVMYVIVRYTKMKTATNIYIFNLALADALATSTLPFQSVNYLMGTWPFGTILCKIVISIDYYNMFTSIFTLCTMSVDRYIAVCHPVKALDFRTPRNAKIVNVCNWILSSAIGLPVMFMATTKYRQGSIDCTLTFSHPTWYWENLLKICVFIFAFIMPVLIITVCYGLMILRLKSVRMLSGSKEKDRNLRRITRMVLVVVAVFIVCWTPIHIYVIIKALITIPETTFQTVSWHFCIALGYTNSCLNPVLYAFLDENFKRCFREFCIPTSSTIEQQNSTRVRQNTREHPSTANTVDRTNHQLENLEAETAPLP
Sequence of D(2) dopamine receptor (P14416 whole entry): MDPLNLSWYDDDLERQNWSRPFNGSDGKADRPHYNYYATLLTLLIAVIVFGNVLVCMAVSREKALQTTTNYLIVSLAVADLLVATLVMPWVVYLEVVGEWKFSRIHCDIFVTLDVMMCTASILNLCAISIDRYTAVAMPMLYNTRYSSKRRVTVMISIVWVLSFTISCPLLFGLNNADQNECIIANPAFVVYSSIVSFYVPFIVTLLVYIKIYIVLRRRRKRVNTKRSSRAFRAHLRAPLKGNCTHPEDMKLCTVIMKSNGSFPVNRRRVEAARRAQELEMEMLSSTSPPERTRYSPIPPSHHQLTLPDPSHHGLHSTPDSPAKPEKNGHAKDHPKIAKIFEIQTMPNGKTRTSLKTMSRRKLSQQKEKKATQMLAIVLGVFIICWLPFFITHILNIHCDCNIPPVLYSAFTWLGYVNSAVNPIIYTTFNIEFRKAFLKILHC

Take `COc1cc(COc2cc(N)c(Cl)cc2C(=O)CCC2CCN(CCNS(C)(=O)=O)CC2)cc(OC)c1` [CAS_167710-87-4]: the Ki in test [1] is 1 µM; in test [2], 1 µM; in test [3], 0.794 µM; in test [4], 1 µM; on B1 bradykinin receptor it was greater than 10 µM; in test [5], 0.00079 µM. For the same molecule, the Ki in test [6] is greater than 10 µM; at Mu-type opioid receptor, 1 µM; at D(2) dopamine receptor it was 1 µM; in test [7], 0.398 µM; at D(1A) dopamine receptor it was 1 µM; in [8], 1 µM.

The values are drawn from BindingDB's records for doi:10.1111/j.1476-5381.1995.tb15922.x (Syntex Discovery Research, 1995).
